This note sets out measurements from US10722467B2, “Remote loading of sparingly water-soluble drugs into liposomes” (ZONEONE PHARMA, INC., priority 2013, dated 2020).

Assay type in all cases: physicochemical
Series [1] can be described thus: Remote loading of aripiprazole into liposomes. As for the experimental part:
Liposomes (HSPC/Chol/PEG-DSPE 3/2/0.15 mol/mol/mol) containing 250 mM ammonium sulfate or 250 mM sodium sulfate were diluted in 1 mL of 50 mM citric acid, 10% (wt/wt) sucrose, pH 4.0 to a concentration of 6 mM phospholipid. 0.3 mg of aripiprazole was added from a stock solution of 15 mg/mL in DMSO, so that the final DMSO concentration was 2% (v/v). Fine precipitates were immediately observed after the drug was added to both liposome samples. The samples were heated at 65° C. for 30 min, the cooled on ice. The samples were filtered through a 0.2 um polyethersulfone syringe filter to remove any drug precipitates, followed by purification on a Sephadex G25 column equilibrated with HBS, pH 6.5 to remove any soluble extraliposome drug. The turbid fraction was collected and analyzed for lipid and drug as described above.

A short description of series [2]: Aripiprazole precipitates from various solvents with liposomes, absorbance at 600 nm. Particulars: drug initially dissolved in DMSO, 1-4-methylpyrrolidone, diethylenemonoethylether or polyethyleneglycol (MW400); 7.5% solvent; ammonium sulfate liposomes; 65°C 30 min. On the procedure: Aripiprazole was dissolved in a range of solvents indicated below at 4 mg/mL. Liposomes composed of HSPC/Chol/PEG-DSPE (3/2/0.15 mol/mol/mol) that were prepared in 250 mM ammonium sulfate were used and diluted to 6 mM in Hepes buffered sucrose 10% (wt/wt) (HBSuc pH 6.5). 0.3 mg of drug was introduced by slow addition of each solvent while vortexing. The final solvent concentration was 7.5% for all samples. As controls, the drug was added from each solvent to the same volume of HBSuc pH 6.5 without the liposomes. The samples were heated at 65° C. for 30 min then cooled on ice.

Series [3] is described as follows: Reverse gradient-directed drug release from liposomes. As for the experimental part:
Liposomes were loaded with carfilzomib as described in Example 1 and were purified into deionized water. The sample was divided into two aliquots. To the first aliquot, concentrated Hepes pH 7.4 and NaCl was added so that the final concentration was 5 mM Hepes, 145 mM NaCl (HBS). To the second aliquot, concentrated ammonium sulfate was added so that the final concentration was 250 mM. No obvious physical changes were initially observed. The samples were then heated at 65° C. for 30 min. The samples were transferred to clean eppendorf tubes and centrifuged for 10,000 rpm for 5 min after which the supernatants and precipitates were separated and tested for carfilzomib content by HPLC assay. Released drug precipitated, liposome encapsulated drug remained in the supernatant. The % carfilzomib released was calculated by […]

Series [4] can be described thus: Liposome size by dynamic light scattering. Particulars: carfilzomib-loaded liposomes, before lyophilizing. On the procedure:
(§1) The lipid concentration is determined by measuring the cholesterol by HPLC using an Agilent 1100 HPLC with and Agilent Zorbax 5 um, […], Eclipse XDB-C8 column and a mobile phase of A=0.1% TFA, B=0.1% TFA/MeOH with an isocratic elution of 99% B. The flow rate is 1.0 mL/min, column temperature is 50° C., 10 μL injection and detection by absorbance at 205 nm. The retention time of cholesterol is 4.5 min. The liposome size is measured by dynamic light scattering.
See Example 1, Carfilzomib liposome entrapment by remote loading for details on how the liposomes were made, purified and characterized.

The nature of series [5]: Remote loading of carfilzomib into liposomes (drug/lipid ratio and loading efficiency by HPLC). Particulars: for efficiency of loading: 100 g drug/mol HSPC. On the procedure: Ammonium sulfate solution was prepared by dissolving ammonium sulfate solid to a final concentration of 250 mM (500 mequivilents of anion/L) no pH adjustment was made to yield a final pH of 5.6. Sodium sulfate solution (250 mM) was prepared by adding 0.35 g sodium sulfate to 10 mL deionized water.
The liposomes were formed by extrusion. Lipids were dissolved in ethanol at a concentration of 500 mM HSPC (591 mg/mL total lipid) at 65° C. and the 9 volumes of the trapping agent solution heated to 65° C. was added to the ethanol/lipid solution also at 65° C. The mixture was vortexed and transferred to a 10 mL thermostatically controlled (65° C.) Lipex Extruder. The liposomes were formed by extruding 10 times through polycarbonate membranes having 0.1 um pores. After extrusion the liposomes were cooled on ice. The transmembrane electrochemical gradient was formed by purification of the liposomes by dialysis in dialysis tubing having a molecular weight cut off of 12,000-14,000. The samples are dialyzed against 5 mM HEPES, 10% sucrose pH 6.5 (stirring at 4° C.) at volume that is 100 fold greater than the sample volume. The dialysate was changed after 2 h then 4 more times after 12 h each. The conductivity of the liposome solution was measured and was indistinguishable from the dialysis medium ˜40 μS/cm.
as §1
Carfilzomib (Selleck Chemicals) was dissolved in DMSO at a concentration of 10 mg/mL. […] The liposomes were diluted with 50 mM citrate, 10% sucrose pH 4.0 to increase the volume to a point where after addition of the drug the final DMSO concentration is 2%. The carfilzomib/DMSO was added to the diluted liposomes, which were mixed at room temperature then transferred to a 65° C. bath and swirled every 30 s for the first 3 min and then swirled every 5 min over a total heating time of 30 min. All samples were very cloudy when the drug was added and all became clear (same as liposomes with no drug added) after 15 min. After heating for 30 min all samples were placed on ice for 15 min. The loaded liposomes were vortexed and 100 μL of sample was kept as the “before column” and the rest transferred to microcentrifuge tubes and spun at 10,000 RPM for 5 min. The supernatants were purified on a Sephadex G25 column collected and analyzed by HPLC. The HPLC analysis of carfilzomib was performed on the same system as described for analysis of cholesterol. The mobile phase consists of A=0.1% TFA, B=0.1% TFA/MeOH with a gradient elution starting at 50% B and increasing to 83% B in 13 min with 7 min equilibration back to 50% B. The flow rate is 1.0 mL/min, column temperature is 30 C, 10 μl injection and detection by absorbance at 205 nm. The retention time of carfilzomib is 12.2 min. The lipid concentration is determined by analysis of the cholesterol by HPLC. […]
Napthelenedisulfonic acid (NDS) was dissolved in water and titrated with diethylamine to a final pH of 8.0 and concentration of 250 mM (500 mequivilents of anion/L). […]
To ensure complete removal of the DMSO added with carfilzomib, the liposomal carfilzomib samples were dialyzed in dialysis tubing having a molecular weight cut off of 12,000-14,000. The samples are dialyzed against 5 mM HEPES, 10% sucrose pH 6.5 (stirring at 4° C.) at volume that is 100 fold greater than the sample volume. The dialysate was changed after 2 h then 2 more times after 12 h each. The carfilzomib liposomes were again analyzed for drug and lipid concentration as described above. […]

A short description of series [6]: Carfilzomib solubility as a function of DMSO content (optical density at 600 nm). Particulars: drug 0.2 mg/mL. As for the experimental part: Carfilzomib was added from a stock 10 mg/mL solution in DMSO to 1 mL of a citric acid/DMSO mixture so that the composition of DMSO was 2%, 25%, 50%, 75% and 100%. The final drug concentration was 0.2 mg/mL. The solutions were prepared and measured for optical density at 600 nm. The optical density at 600 nm is a good measure of how turbid or how much scattering material (such as drug precipitates) are in a solution, generally, the more precipitates the higher the absorbance. From FIG. 8 is apparent that at DMSO concentrations below 50% vol/vol (25° C.) and 25% vol/vol (65° C.) the drug remains in a precipitated form. Only when the concentration of DMSO is increased does it become effectively solubilized at this concentration of 0.2 mg/mL.

A short description of series [7]: Light scattering at 600 nm during carfilzomib loading. As for the experimental part: Liposomes containing 250 mM ammonium sulfate as trapping agent and 250 mM sodium sulfate as control liposomes which would not remote load drug. The liposomes were prepared and loaded using the procedure described in Example 1 except a disposable polystyrene cuvette was used as the reaction vessel. The scattering of light at 600 nm was measured with a UV/vis spectrophotometer during the loading process.

Setting [8] is: 500 mM ammonium sulfate liposomes, highest input ratio of Example 10.
Where [9] appears, read: [(NH4)2SO4] 250 mM, input drug/HSPC 167.3 g/mol.

Where only a bound is given, the exact number is not on record here.

In series [1] (drug introduced as SBCD complex (from the pharmaceutical product Abilify), same concentration and loading conditions), `O=C1CCc2ccc(OCCCCN3CCN(c4cccc(Cl)c4Cl)CC3)cc2N1` [aripiprazole] returned a loading efficiency of 68%. In addition, in series [1] (loading into ammonium sulfate vs sodium sulfate liposomes), the “Fold Increase NH4SO4/NaSO4” value is on record as 49.3 fold. Besides, the “clarification of drug precipitate with liposomes (absorbance at 600 nm)” value in series [2] was “clarified the drug precipitate”.

Regarding `CC(C)C[C@H](NC(=O)[C@H](CCc1ccccc1)NC(=O)CN1CCOCC1)C(=O)N[C@@H](Cc1ccccc1)C(=O)N[C@@H](CC(C)C)C(=O)[C@@]1(C)CO1` [carfilzomib], the “degradation of released drug by HPLC chromatogram” value in series [3] (after loading and release from liposomes, compared with starting material) is recorded as “no degradation of carfilzomib had taken place”. In series [3] (ammonium sulfate vs Hepes buffered saline), the “drug released with reverse gradient vs control with no reverse gradient” value turned out to be 6.5 fold. For the same molecule, the PDI amounted to 0.062 in series [4] (trapping agent (NH4)2SO4, drug added quickly); 0.035 in series [4] (trapping agent (NH4)2SO4, drug added slowly); 0.08 in series [4] (trapping agent mellitic acid); 0.039 in series [4] (trapping agent napthelenedisulfonic acid). For the same molecule, the “drug/carrier total lipid weight ratio (highest reached)” value in series [5] (setting [8]) was 0.4. For the same molecule, the “final drug payload (highest reached)” value in series [5] (setting [8]) stood at 469±4.9 g drug/mol HSPC. Further, the “final drug to lipid ratio” value in series [5] (500 mM ammonium sulfate, input 639 g drug/mol HSPC) is 440±10.2 g drug/mol HSPC. Also, in series [5] (DMSO absent), the remote loading entry was “practically no loading”. For the same molecule, the “Drug payload/carrier weight ratio” value in series [5] ([(NH4)2SO4] 250 mM, input drug/HSPC 91.8 g/mol) is reported as 0.07 g drug/g total lipid; in series [5] (setting [9]) it was 0.11 g drug/g total lipid; in series [5] ([(NH4)2SO4] 250 mM, input drug/HSPC 251.8 g/mol) it was 0.15 g drug/g total lipid; in series [5] ([(NH4)2SO4] 250 mM, input drug/HSPC 338.1 g/mol), 0.18 g drug/g total lipid; in series [5] ([(NH4)2SO4] 250 mM, input drug/HSPC 432.8 g/mol), 0.20 g drug/g total lipid; in series [5] ([(NH4)2SO4] 500 mM, input drug/HSPC 450.6 g/mol), 0.29 g drug/g total lipid. In addition, the “Drug payload/carrier weight ratio” value was determined as 0.32 g drug/g total lipid in series [5] ([(NH4)2SO4] 500 mM, input drug/HSPC 545.9 g/mol); 0.37 g drug/g total lipid in series [5] ([(NH4)2SO4] 500 mM, input drug/HSPC 639.2 g/mol); 0.40 g drug/g total lipid in series [5] ([(NH4)2SO4] 500 mM, input drug/HSPC 758.7 g/mol). Further, in series [5] (setting [9]), the efficiency came out at 76.0%. The efficiency of loading is 96.3%±1.09% in series [5] (drug from 10 mg/mL DMSO solution added in 5 increments over 1 min while vortexing) and 97.0%±2.38% in series [5] (drug from 10 mg/mL DMSO solution added quickly, 2% DMSO). Moreover, the “loading capacity, remote loaded (ammonium sulfate) vs sodium sulfate liposomes” value in series [5] (drug input below/at 100 g drug/mol HSPC) is given as more than 3 fold. Also, the “effect of time between precipitate formation and loading on loading efficiency” value in series [5] (liposomes added immediately, after 1 h or 12 h delay) is “does not have a significant impact”. For the same molecule, the “DMSO concentration below which the drug remains in a precipitated form” value is “below 50 % vol/vol” in series [6] (25°C) and less than 25 % vol/vol in series [6] (65°C). Besides, the “DMSO required to completely dissolve the drug” value in series [6] (65°C, citric acid/DMSO mixture) is on record as more than 25 % vol/vol. Further, in series [7] (250 mM ammonium sulfate liposomes, light scattering at 600 nm during loading), the “time to clarification of the solution” value is recorded as not above 15 min. Also, the “clarification of the precipitate during loading” value in series [7] (250 mM sodium sulfate control liposomes, light scattering at 600 nm) is “do not show any clarification of the precipitate”.
